From the NIST ThermoML archive (doi:10.1016/j.tca.2015.06.017)
± gives the expanded uncertainty stated by the source.

Assay: xn = mol fraction of the nth substance listed
Settings: Liquid, Vibrating tube method

CCCCCl [1-chlorobutane] + CCCCCCC
Settings	mass density [kg/m3]
303.15 K, 50000 kPa, x2 = 0.2013	865.75 ± 0.49
303.15 K, 50000 kPa, x2 = 0.3015	841.81 ± 0.54
303.15 K, 50000 kPa, x2 = 0.4008	819.81 ± 0.58
303.15 K, 50000 kPa, x2 = 0.5026	798.87 ± 0.63
303.15 K, 50000 kPa, x2 = 0.6012	780.02 ± 0.66
303.15 K, 50000 kPa, x2 = 0.7003	762.36 ± 0.7
303.15 K, 50000 kPa, x2 = 0.7995	745.84 ± 0.73
303.15 K, 50000 kPa, x2 = 0.9011	729.99 ± 0.76
303.15 K, 50000 kPa, x2 = 0.9494	722.81 ± 0.78
303.15 K, 60000 kPa, x2 = 0.0508	912.31 ± 0.44
303.15 K, 60000 kPa, x2 = 0.0994	899.01 ± 0.47
303.15 K, 60000 kPa, x2 = 0.2013	872.64 ± 0.53
303.15 K, 60000 kPa, x2 = 0.3015	848.6 ± 0.59
303.15 K, 60000 kPa, x2 = 0.4008	826.55 ± 0.64
303.15 K, 60000 kPa, x2 = 0.5026	805.54 ± 0.69
303.15 K, 60000 kPa, x2 = 0.6012	786.57 ± 0.73
303.15 K, 60000 kPa, x2 = 0.7003	768.84 ± 0.78
303.15 K, 60000 kPa, x2 = 0.7995	752.23 ± 0.82
303.15 K, 60000 kPa, x2 = 0.9011	736.26 ± 0.85
303.15 K, 60000 kPa, x2 = 0.9494	729.04 ± 0.87
303.15 K, 65000 kPa, x2 = 0.0508	915.61 ± 0.45
303.15 K, 65000 kPa, x2 = 0.0994	902.28 ± 0.48
303.15 K, 65000 kPa, x2 = 0.2013	875.88 ± 0.55
303.15 K, 65000 kPa, x2 = 0.3015	851.83 ± 0.61
303.15 K, 65000 kPa, x2 = 0.4008	829.71 ± 0.66
303.15 K, 65000 kPa, x2 = 0.5026	808.61 ± 0.72
303.15 K, 65000 kPa, x2 = 0.6012	789.63 ± 0.77
303.15 K, 65000 kPa, x2 = 0.7003	771.84 ± 0.81
303.15 K, 65000 kPa, x2 = 0.7995	755.19 ± 0.86
303.15 K, 65000 kPa, x2 = 0.9011	739.21 ± 0.9
303.15 K, 65000 kPa, x2 = 0.9494	731.94 ± 0.92
313.15 K, 100 kPa, x2 = 0.0508	849.81 ± 0.24
313.15 K, 100 kPa, x2 = 0.0994	836.88 ± 0.24
313.15 K, 100 kPa, x2 = 0.2013	811.33 ± 0.24
313.15 K, 100 kPa, x2 = 0.3015	788.17 ± 0.24
313.15 K, 100 kPa, x2 = 0.4008	766.92 ± 0.24
313.15 K, 100 kPa, x2 = 0.5026	746.79 ± 0.25
313.15 K, 100 kPa, x2 = 0.6012	728.67 ± 0.25
313.15 K, 100 kPa, x2 = 0.7003	711.73 ± 0.25
313.15 K, 100 kPa, x2 = 0.7995	695.88 ± 0.25
313.15 K, 100 kPa, x2 = 0.9011	680.8 ± 0.25
313.15 K, 100 kPa, x2 = 0.9494	673.98 ± 0.25
313.15 K, 2000 kPa, x2 = 0.0508	852.16 ± 0.25
313.15 K, 2000 kPa, x2 = 0.0994	839.22 ± 0.25
313.15 K, 2000 kPa, x2 = 0.2013	813.71 ± 0.25
313.15 K, 2000 kPa, x2 = 0.3015	790.49 ± 0.26
313.15 K, 2000 kPa, x2 = 0.4008	769.27 ± 0.26
313.15 K, 2000 kPa, x2 = 0.5026	749.1 ± 0.26
313.15 K, 2000 kPa, x2 = 0.6012	730.92 ± 0.26
313.15 K, 2000 kPa, x2 = 0.7003	713.94 ± 0.27
313.15 K, 2000 kPa, x2 = 0.7995	698.12 ± 0.27
313.15 K, 2000 kPa, x2 = 0.9011	683.02 ± 0.27
313.15 K, 2000 kPa, x2 = 0.9494	676.19 ± 0.27
313.15 K, 5000 kPa, x2 = 0.0508	855.66 ± 0.27
313.15 K, 5000 kPa, x2 = 0.0994	842.7 ± 0.27
313.15 K, 5000 kPa, x2 = 0.2013	817.15 ± 0.27
313.15 K, 5000 kPa, x2 = 0.3015	793.89 ± 0.28
313.15 K, 5000 kPa, x2 = 0.4008	772.63 ± 0.28
313.15 K, 5000 kPa, x2 = 0.5026	752.4 ± 0.29
313.15 K, 5000 kPa, x2 = 0.6012	734.17 ± 0.29
313.15 K, 5000 kPa, x2 = 0.7003	717.17 ± 0.3
313.15 K, 5000 kPa, x2 = 0.7995	701.32 ± 0.3
313.15 K, 5000 kPa, x2 = 0.9011	686.16 ± 0.31
313.15 K, 5000 kPa, x2 = 0.9494	679.3 ± 0.31
313.15 K, 7000 kPa, x2 = 0.0508	857.83 ± 0.28
313.15 K, 7000 kPa, x2 = 0.0994	844.87 ± 0.28
313.15 K, 7000 kPa, x2 = 0.2013	819.33 ± 0.29
313.15 K, 7000 kPa, x2 = 0.3015	796.12 ± 0.29
313.15 K, 7000 kPa, x2 = 0.4008	774.82 ± 0.3
313.15 K, 7000 kPa, x2 = 0.5026	754.59 ± 0.31
313.15 K, 7000 kPa, x2 = 0.6012	736.35 ± 0.31
313.15 K, 7000 kPa, x2 = 0.7003	719.35 ± 0.32
313.15 K, 7000 kPa, x2 = 0.7995	703.48 ± 0.33
313.15 K, 7000 kPa, x2 = 0.9011	688.32 ± 0.33
313.15 K, 7000 kPa, x2 = 0.9494	681.45 ± 0.33
313.15 K, 10000 kPa, x2 = 0.0508	861.16 ± 0.29
313.15 K, 10000 kPa, x2 = 0.0994	848.2 ± 0.3
313.15 K, 10000 kPa, x2 = 0.2013	822.59 ± 0.31
313.15 K, 10000 kPa, x2 = 0.3015	799.33 ± 0.32
313.15 K, 10000 kPa, x2 = 0.4008	777.95 ± 0.33
313.15 K, 10000 kPa, x2 = 0.5026	757.71 ± 0.33
313.15 K, 10000 kPa, x2 = 0.6012	739.49 ± 0.34
313.15 K, 10000 kPa, x2 = 0.7003	722.43 ± 0.35
313.15 K, 10000 kPa, x2 = 0.7995	706.51 ± 0.36
313.15 K, 10000 kPa, x2 = 0.9011	691.27 ± 0.37
313.15 K, 10000 kPa, x2 = 0.9494	684.4 ± 0.37
313.15 K, 20000 kPa, x2 = 0.0508	871.22 ± 0.34
313.15 K, 20000 kPa, x2 = 0.0994	858.21 ± 0.35
313.15 K, 20000 kPa, x2 = 0.2013	832.53 ± 0.37
313.15 K, 20000 kPa, x2 = 0.3015	809.13 ± 0.39
313.15 K, 20000 kPa, x2 = 0.4008	787.71 ± 0.4
